Test results published in patent US20170283404A1, “CRYSTALLINE FORMS OF 2-(4-(4-ETHOXY-6-OXO-1,6-DIHYDROPYRIDIN-3-YL)-2-FLUOROPHENYL)-N-(5-(1,1,1-TRIFLUORO-2-METHYLPROPAN-2-YL)ISOXAZOL-3-YL)ACETAMIDE” (GLAXOSMITHKLINE INTELLECTUAL PROPERTY DEVELOPMENT LIMITED, priority 2014, published 2017).

Experiment: Drying of crystalline form in vacuum oven (solid-state stability)
Assay type: physicochemical
Settings: vacuum oven at 50° C. with a nitrogen bleed for about 17 hours

CCOc1cc(=O)[nH]cc1-c1ccc(CC(=O)Nc2cc(C(C)(C)C(F)(F)F)on2)c(F)c1 [Compound A—Monohydrate, 2-(4-(4-ethoxy-6-oxo-1,6-dihydropyridin-3-yl)-2-fluorophenyl)-N-(5-(1,1,1-trifluoro-2-methylpropan-2-yl)isoxazol-3-yl)acetamide]
change in form by Raman or XRPD after drying: no change in form
change to the water content by TGA after drying: no change to the water content
